Measurements as given in patent US11505575B2, “Cyclic polypeptides for PCSK9 inhibition” (Merck Sharp & Dohme LLC, priority 2018, dated 2022).
*1 amine or outer side, *2 acyl side, *3 side chain or, on linkers, in order; H or OH if unused. Where a SMILES comes first, the peptide text is derived from it. Bridges are numbered along the chain shown (N, C = ends). [ ]: non-standard residue; d: D form. Ala(benzothiazol-2-yl) = N[C@@H](Cc1nc2ccccc2s1)C(=O)O; Phe(4-guanidino) = N=C(N)Nc1ccc(C[C@H](N)C(=O)O)cc1; X4 = O=C([C@H](Cc1cc2cc(F)ccc2[nH]1)N[*:1])[*:2]; Trp(5-F) = N[C@@H](Cc1c[nH]c2ccc(F)cc12)C(=O)O; Trp(7-aza) = N[C@@H](Cc1c[nH]c2ncccc12)C(=O)O; hAad = O=C([C@H](CCCCC(=O)[*:3])N[*:1])[*:2]; X7 = O=C([C@H](Cc1cc[nH]c1)N[*:1])[*:2]; mXylylene = c1cc(C[*:1])cc(C[*:2])c1; d(aThr) = C[C@@H](O)[C@@H](N)C(=O)O; Cha = N[C@@H](CC1CCCCC1)C(=O)O; Agp = N=C(N)NC[C@H](N)C(=O)O; Chg = N[C@H](C(=O)O)C1CCCCC1; Tle = CC(C)(C)[C@H](N)C(=O)O; αMeV = CC(C)[C@](C)(N)C(=O)O; hLys = NCCCCC[C@H](N)C(=O)O; αMeP = C[C@@]1(C(=O)O)CCCN1; hSer = N[C@@H](CCO)C(=O)O; Dab = NCC[C@H](N)C(=O)O; Nva = CCC[C@H](N)C(=O)O; Aib = CC(C)(N)C(=O)O; Mpa = O=C(O)CCS

The compounds below were run against human PCSK9 / human LDLR EGFa domain interaction (Homo sapiens, UniProt Q8NBP7) (assay: TR-FRET assay of inhibition of the PCSK9-LDLR protein-protein interaction). Settings: 20 nM biotinylated human PCSK9 + 20 nM his-tagged human LDLR EGFa domain, 2 hours room temperature.
human PCSK9 / human LDLR EGFa domain interaction, sequence (Q8NBP7 153-692): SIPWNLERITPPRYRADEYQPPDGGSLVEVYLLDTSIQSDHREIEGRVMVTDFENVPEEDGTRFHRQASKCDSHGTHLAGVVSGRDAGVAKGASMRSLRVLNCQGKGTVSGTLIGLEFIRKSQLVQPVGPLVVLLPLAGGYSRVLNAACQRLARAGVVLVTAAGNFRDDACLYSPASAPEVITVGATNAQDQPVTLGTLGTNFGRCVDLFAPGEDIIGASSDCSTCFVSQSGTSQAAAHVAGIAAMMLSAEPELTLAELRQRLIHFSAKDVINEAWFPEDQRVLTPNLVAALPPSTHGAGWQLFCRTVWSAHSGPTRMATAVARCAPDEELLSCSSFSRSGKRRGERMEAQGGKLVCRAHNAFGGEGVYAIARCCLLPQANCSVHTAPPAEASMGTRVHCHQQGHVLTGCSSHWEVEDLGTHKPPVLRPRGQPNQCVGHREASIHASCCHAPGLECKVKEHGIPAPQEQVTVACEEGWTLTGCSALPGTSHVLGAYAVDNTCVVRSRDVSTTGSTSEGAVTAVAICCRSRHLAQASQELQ
human PCSK9 / human LDLR EGFa domain interaction, sequence (Q8NBP7 31-152 partner limits assumed): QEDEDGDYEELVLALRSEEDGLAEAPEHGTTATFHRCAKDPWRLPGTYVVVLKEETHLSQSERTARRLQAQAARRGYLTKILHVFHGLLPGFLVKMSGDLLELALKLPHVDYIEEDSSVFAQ
Format: binding
Protocol: A time-resolved fluorescence resonance energy (TR-FRET) assay was used to measure inhibition of the PCSK9-LDLR protein-protein interaction. Briefly, 20 nM avitag-biotinylated human PCSK9 was incubated with 20 nM his-tagged human LDLR EGFa domain in the presence of 5 nM LANCE Ulight Streptavidin (Perkin Elmer) and 5 nM europium-Anti-6×His (Perkin Elmer) for 2 hours covered at room temperature in buffer containing 50 mM HEPES, 150 mM NaCl, 5 mM CaCl2, 0.01% BSA and 0.01% Surfactant P20. Compounds were tested in dose-response and concentrations giving half-maximal inhibition calculated using a 4-parameter fit equation.

SMILES	IC50 [nM]
CC(C)[C@]1(C)NC(=O)[C@H](Cc2ccc(O)cc2)NC(=O)[C@H](CCC(=O)O)NC(=O)C(C)(C)NC(=O)[C@H](Cc2c[nH]c3ncccc23)NC(=O)[C@H]([C@@H](C)O)NC(=O)[C@H](CCCCN)NC(=O)[C@H](Cc2ccc(O)cc2)NC(=O)[C@H](C(C)(C)C)NC(=O)CCSCc2cccc(c2)CSC[C@@H](C(N)=O)NC(=O)[C@H]([C@@H](C)O)NC1=O [Compound 063] ([Mpa][Tle]YKT[Trp(7-aza)][Aib]EY[αMeV]TC-NH2; linker 1-12 via mXylylene)	100 to 1000
CCC[C@@H]1NC(=O)[C@H](Cc2ccc(O)cc2)NC(=O)[C@H](CCC(=O)O)NC(=O)[C@H](CCC)NC(=O)[C@H](Cc2c[nH]c3ncccc23)NC(=O)[C@H]([C@@H](C)O)NC(=O)[C@H](Cc2cnc[nH]2)NC(=O)[C@H](Cc2ccc(O)cc2)NC(=O)[C@H](C(C)(C)C)NC(=O)CCSCc2cccc(c2)CSC[C@@H](C(N)=O)NC(=O)[C@H](CCO)NC1=O [Compound 074] ([Mpa][Tle]YHT[Trp(7-aza)][Nva]EY[Nva][hSer]C-NH2; linker 1-12 via mXylylene)	100 to 1000
CCC[C@@H]1NC(=O)[C@H](Cc2c[nH]c3ncccc23)NC(=O)[C@H]([C@@H](C)O)NC(=O)[C@H](Cc2c[nH]cn2)NC(=O)[C@H](Cc2ccc(O)cc2)NC(=O)[C@H](C(C)(C)C)NC(=O)CCSCc2cccc(c2)CSC[C@@H](C(N)=O)NC(=O)[C@H]([C@@H](C)O)NC(=O)[C@]2(C)CCCN2C(=O)[C@H](Cc2ccc(O)cc2)NC(=O)[C@H](CCC(=O)O)NC1=O [Compound 075] ([Mpa][Tle]YHT[Trp(7-aza)][Nva]EY[αMeP]TC-NH2; linker 1-12 via mXylylene)	100 to 1000
CCC[C@@H]1NC(=O)[C@H](Cc2c[nH]c3ncccc23)NC(=O)[C@H]([C@@H](C)O)NC(=O)[C@H](Cc2cc[nH]c2)NC(=O)[C@H](Cc2ccc(O)cc2)NC(=O)[C@H](C(C)(C)C)NC(=O)CCSCc2cccc(c2)CSC[C@@H](C(N)=O)NC(=O)[C@]2(C)CCCN2C(=O)[C@H](Cc2ccc(O)cc2)NC(=O)[C@H](CCC(=O)O)NC1=O [Compound 076] ([Mpa][Tle]Y[X7]T[Trp(7-aza)][Nva]EY[αMeP]C-NH2; linker 1-11 via mXylylene)	100 to 1000
CC(C)[C@]1(C)NC(=O)[C@H](Cc2ccc(O)cc2)NC(=O)[C@H](CCC(=O)O)NC(=O)C(C)(C)NC(=O)[C@H](Cc2c[nH]c3ncccc23)NC(=O)[C@H]([C@@H](C)O)NC(=O)[C@H](CCCCN)NC(=O)[C@H](Cc2ccc(O)cc2)NC(=O)[C@H](C(C)(C)C)NC(=O)CCSCc2cccc(c2)CSC[C@H](C(N)=O)NC(=O)[C@H]([C@@H](C)O)NC1=O [Compound 077] ([Mpa][Tle]YKT[Trp(7-aza)][Aib]EY[αMeV]T[dC]-NH2; linker 1-12 via mXylylene)	100 to 1000
CCC[C@@H]1NC(=O)[C@H](Cc2ccc(O)cc2)NC(=O)[C@H](CCC(=O)O)NC(=O)[C@H](CC(C)C)NC(=O)[C@H](Cc2c[nH]c3ncccc23)NC(=O)[C@H]([C@@H](C)O)NC(=O)[C@H](Cc2cnc[nH]2)NC(=O)[C@H](Cc2ccc(O)cc2)NC(=O)[C@H](C(C)(C)C)NC(=O)CCSCc2cccc(c2)CSC[C@@H](C(N)=O)NC(=O)[C@H]([C@@H](C)O)NC1=O [Compound 078] ([Mpa][Tle]YHT[Trp(7-aza)]LEY[Nva]TC-NH2; linker 1-12 via mXylylene)	100 to 1000
CCC[C@@H]1NC(=O)[C@H](Cc2ccc(O)cc2)NC(=O)[C@H](CCC(=O)O)NC(=O)[C@H](CC2CCCCC2)NC(=O)[C@H](Cc2c[nH]c3ncccc23)NC(=O)[C@H]([C@@H](C)O)NC(=O)[C@H](Cc2cnc[nH]2)NC(=O)[C@H](Cc2ccc(O)cc2)NC(=O)[C@H](C(C)(C)C)NC(=O)CCSCc2cccc(c2)CSC[C@@H](C(N)=O)NC(=O)[C@H]([C@@H](C)O)NC1=O [Compound 079] ([Mpa][Tle]YHT[Trp(7-aza)][Cha]EY[Nva]TC-NH2; linker 1-12 via mXylylene)	1000 to 12100
CCC[C@@H]1NC(=O)[C@H](Cc2nc3ccccc3s2)NC(=O)[C@H]([C@@H](C)O)NC(=O)[C@H](Cc2cnc[nH]2)NC(=O)[C@H](Cc2ccc(O)cc2)NC(=O)[C@H](C(C)(C)C)NC(=O)CCSCc2cccc(c2)CSC[C@@H](C(N)=O)NC(=O)[C@H]([C@@H](C)O)NC(=O)[C@H](CCC)NC(=O)[C@H](Cc2ccc(O)cc2)NC(=O)[C@H](CCC(=O)O)NC1=O [Compound 084] ([Mpa][Tle]YHT[Ala(benzothiazol-2-yl)][Nva]EY[Nva]TC-NH2; linker 1-12 via mXylylene)	100 to 1000
CCC[C@@H]1NC(=O)[C@H](Cc2c[nH]c3ncccc23)NC(=O)[C@@H]([C@@H](C)O)NC(=O)[C@@H]2CCCCC(=O)NCC[C@H](NC1=O)C(=O)N[C@@H](Cc1ccc(O)cc1)C(=O)N[C@@H](C1CCCCC1)C(=O)N[C@@H]([C@@H](C)O)C(=O)N[C@H](C(N)=O)CSCc1cccc(c1)CSCCC(=O)N[C@@H](C(C)(C)C)C(=O)N[C@@H](Cc1ccc(O)cc1)C(=O)N2 [Compound 108] ([Mpa][Tle]Y[hAad][d(aThr)][Trp(7-aza)][Nva][Dab]Y[Chg]TC-NH2; linker 1-12 via mXylylene; lactam 4-8)	100 to 1000

More lines, now with the values ahead:

IC50 [nM]	SMILES
100 to 1000	CCC[C@@H]1NC(=O)[C@H](Cc2c[nH]c3ncccc23)NC(=O)[C@H]([C@@H](C)O)NC(=O)[C@H](CCCCCN)NC(=O)[C@H](Cc2ccc(O)cc2)NC(=O)[C@H](C(C)(C)C)NC(=O)CCSCc2cccc(c2)CSC[C@@H](C(N)=O)NC(=O)[C@H]([C@@H](C)O)NC(=O)[C@H](CCC)NC(=O)[C@H](Cc2ccc(O)cc2)NC(=O)[C@H](CCC(=O)O)NC1=O [Compound 062] ([Mpa][Tle]Y[hLys]T[Trp(7-aza)][Nva]EY[Nva]TC-NH2; linker 1-12 via mXylylene)
100 to 1000	CCC[C@@H]1NC(=O)[C@H](Cc2c[nH]c3ncccc23)NC(=O)[C@H]([C@@H](C)O)NC(=O)[C@H](Cc2cnc[nH]2)NC(=O)[C@H](Cc2ccc(O)cc2)NC(=O)[C@H](C(C)(C)C)NC(=O)CCSCc2cccc(c2)CSC[C@@H](C(N)=O)NC(=O)[C@H]([C@@H](C)O)NC(=O)[C@H](CCO)NC(=O)[C@H](Cc2ccc(O)cc2)NC(=O)[C@H](CCC(=O)O)NC1=O [Compound 072] ([Mpa][Tle]YHT[Trp(7-aza)][Nva]EY[hSer]TC-NH2; linker 1-12 via mXylylene)
100 to 1000	CCC[C@@H]1NC(=O)[C@H](Cc2c[nH]c3ncccc23)NC(=O)[C@H]([C@@H](C)O)NC(=O)[C@H](CNC(=N)N)NC(=O)[C@H](Cc2cc3cc(F)ccc3[nH]2)NC(=O)[C@H](Cc2cc3cc(F)ccc3[nH]2)NC(=O)[C@@H](NC(=O)[C@H](Cc2ccc(NC(=N)N)cc2)NC(C)=O)CSCc2cccc(c2)CSC[C@@H](C(N)=O)NC(=O)[C@H]([C@@H](C)O)NC(=O)[C@H](CCC)NC(=O)[C@H](Cc2ccc(O)cc2)NC(=O)[C@H](CCC(=O)O)NC1=O [Compound 092] (Ac-[Phe(4-guanidino)]C[X4][X4][Agp]T[Trp(7-aza)][Nva]EY[Nva]TC-NH2; linker 2-13 via mXylylene)
100 to 1000	CCC[C@@H]1NC(=O)[C@H](Cc2c[nH]c3ncccc23)NC(=O)[C@H]([C@@H](C)O)NC(=O)[C@H](CNC(=N)N)NC(=O)[C@H](Cc2c[nH]c3ccc(F)cc23)NC(=O)[C@H](C(C)(C)C)NC(=O)[C@@H](NC(=O)[C@H](Cc2ccc(NC(=N)N)cc2)NC(C)=O)CSCc2cccc(c2)CSC[C@@H](C(N)=O)NC(=O)[C@H]([C@@H](C)O)NC(=O)[C@H](CCC)NC(=O)[C@H](Cc2ccc(O)cc2)NC(=O)[C@H](CCC(=O)O)NC1=O [Compound 093] (Ac-[Phe(4-guanidino)]C[Tle][Trp(5-F)][Agp]T[Trp(7-aza)][Nva]EY[Nva]TC-NH2; linker 2-13 via mXylylene)
